Series [1] has as its target T1, PylRS_AF (Methanosarcina mazei, UniProt Q8PWY1, Y306A/Y384F).
T1 construct: expressed in transfected cells
The series is described as follows: PylRS_AF-mediated amber suppression in GFP-Y39TAG (GFP expression in E. coli). Conditions: for expression of full-length GFP by cellular fluorescence / GFP expression, SDS PAGE of Ni-NTA-purified GFP / yield of purified GFP-Y39→ncAA: E. coli; for expression of full-length GFP by cellular fluorescence / yield of purified GFP-Y39→ncAA: PylRS_AF; for GFP expression, SDS PAGE of Ni-NTA-purified GFP: pREP-PylRS_AF, pBAD_GFP-Y39TAG; for efficiency and accuracy of incorporation into peptides: Figure 2, whole cell fluorescence. The format is cell-based. An excerpt: (§1) Protein Expression and Purification. All proteins were expressed from pBAD vectors and purified using a C-terminal His6 tag. For expression of proteins containing ncAA, E. coli cells were co-transformed with pBAD plasmid containing the target gene with amber codon (pBAD_GFP-39TAG, pBAD_TRX-R74-His6_TAG, pBAD_CmodC or pBAD_TAT, all conferring ampicillin resistance) and a plasmid coding for the respective PylRS mutant and tRNA^Pyl (pEVOL_PylRS_AF, pREP_PylRS_wt, _GF, _AF and PylRS_AF single or double alanine mutants). A single clone was picked and grown in Luria Broth (LB) media supplemented with suited antibiotics at 37 °C and 200 rpm shaking. 0.1 ml of this culture was used to inoculate 5 ml LB supplemented with the same antibiotics and different concentrations of the ncAA. The culture was incubated at 37 °C and 200 rpm shaking until OD600 of ∼0.4 - 0.6 and protein expression was induced with 0.02% (w/v) L-arabinose. The culture was harvested after 4 - 6 h of incubation by centrifugation (10 min, 3320 x g, room temperature). The pellet was lysed with B-Per lysis reagent (Thermo scientific) containing 1x Complete (-EDTA) protease inhibitor cocktail (Roche) and shaking at room temperature at 1400 rpm for 30 min. The suspension was pelleted by centrifugation (5 min, 20817 x g, room temperature) the supernatant was extracted with Ni-NTA agarose slurry (Qiagen) at an imidazole concentration of 10 mM by shaking at room temperature. The beads were washed with 350 µl 4x PBS and or two wash buffers (50 mM NaH2PO4, 300 mM NaCl, pH = 8.0, containing 20 - 50 mM imidazole). Proteins were eluted with elution buffer (50 mM NaH2PO4, 300 mM NaCl, pH = 8.0, containing 500 mM imidazole). For GFP-TAT protein containing ncAA 6, expressions were carried out in BL21 (DE3) gold and purification was conducted as above, but under denaturing conditions (8 M urea). Protein was refolded by stepwise dialysis against 20 mM Tris-HCl, pH = 8.0, 10 % glycerole with decreasing urea concentrations. Purity of the obtained proteins was analyzed by SDS PAGE and staining with Gelcode blue (Thermo Scientific) and quantified using a BCA assay (Pierce, Thermo Scientific). For GFP yield determination based on whole cell fluorescence, cell pellets from 3 ml expressions were washed twice with 3 ml 4x PBS (by centrifugation for 10 min at 3320 x g at room temperature and resuspension) and fluorescence was determined using a Tecan M200 plate reader using and excitation wavelength of 475 nm and an emission wavelength of 510 nm. Fluorescence values were corrected for cell densities based on OD600 - measurements. Generally, expressions were carried out in E. coli Top10 using carbenicillin selection for pEVOL plasmids and tetracyclin selection for pREP plasmids. Wild type thioredoxin and TRX-R74→6 were expressed in E. coli BL21 (DE3) gold cells. Expressed C-terminal fragment of PylRS_AF (aa 188-454) was stored in 10 mM HEPES-Na+, pH = 7.5, 5 mM MgCl2, 300 mM NaCl at -80 °C before use.
Next, the tRNA^Pyl/PylRS pair of Methanosarcina mazei was analyzed for its capability to mediate the selective incorporation of ncAA 3 into proteins in E. coli in response to the amber codon, TAG. E. coli were co-transformed with plasmids pEVOL-PylRS_wt (encoding wild type M. mazei PylRS and tRNA^Pyl) and pBAD_GFP-39TAG (encoding GFP with an amber mutation at position Y39 and a C-terminal His6 tag) and the culture induced with L-arabinose in the presence or absence of 1 mM ncAA 3 or Nε-(tert-butyloxycarbonyl)-L-lysine (Boc-Lys, ncAA 2), which is an efficiently processed substrate of PylRS_wt. However, expression of full-length GFP was only detected for ncAA 2 by cellular fluorescence. […] Among amino acids that constitute the methyl-pyrroline binding pocket of PylRS, Y306 is a main component of the rear part and plays a critical role in discriminating against larger, Nε-carbamate-linked lysine derivatives. […]

In series [2] the target is T2, PylRS_wt (Methanosarcina mazei, UniProt Q8PWY1).
T2 construct: expressed in transfected cells
Put plainly: PylRS_wt-mediated amber suppression in GFP-Y39TAG (GFP expression in E. coli). The format is cell-based. The note with it: for expression of full-length GFP by cellular fluorescence: pEVOL-PylRS_wt, pBAD_GFP-39TAG, 1 mM ncAA; for GFP expression, SDS PAGE of Ni-NTA-purified GFP: pREP-PylRS_wt, pBAD_GFP-Y39TAG.
Text: as §1, with “Protein was refolded by stepwise dialysis against 20 mM Tris-HCl, pH = 8.0, 10 % glycerole with decreasing urea concentrations.” left out, “Generally, expressions were carried out in E. coli Top10 using carbenicillin selection for pEVOL plasmids and tetracyclin selection for pREP plasmids. Wild type thioredoxin and TRX-R74→6 were expressed in E. coli BL21 (DE3) gold cells. Expressed C-terminal fragment of PylRS_AF (aa 188-454) was stored in 10 mM HEPES-Na+, pH = 7.5, 5 mM MgCl2, 300 mM NaCl at -80 °C before use.” left out
Next, the tRNA^Pyl/PylRS pair of Methanosarcina mazei was analyzed for its capability to mediate the selective incorporation of ncAA 3 into proteins in E. coli in response to the amber codon, TAG. […] However, expression of full-length GFP was only detected for ncAA 2 by cellular fluorescence. […]

The target of series [3] is T3, PylRS_GF (Methanosarcina mazei, UniProt Q8PWY1, Y306G/Y384F).
T3 construct: expressed in transfected cells
The series is described as follows: PylRS_GF-mediated amber suppression in GFP-Y39TAG (GFP expression in E. coli). The series is classed as cell-based. Conditions: pREP-PylRS_GF (Y306G), pBAD_GFP-Y39TAG. An excerpt:
(§2) Protein Expression and Purification. All proteins were expressed from pBAD vectors and purified using a C-terminal His6 tag. For expression of proteins containing ncAA, E. coli cells were co-transformed with pBAD plasmid containing the target gene with amber codon (pBAD_GFP-39TAG, pBAD_TRX-R74-His6_TAG, pBAD_CmodC or pBAD_TAT, all conferring ampicillin resistance) and a plasmid coding for the respective PylRS mutant and tRNA^Pyl (pEVOL_PylRS_AF, pREP_PylRS_wt, _GF, _AF and PylRS_AF single or double alanine mutants). A single clone was picked and grown in Luria Broth (LB) media supplemented with suited antibiotics at 37 °C and 200 rpm shaking. 0.1 ml of this culture was used to inoculate 5 ml LB supplemented with the same antibiotics and different concentrations of the ncAA. […] Purity of the obtained proteins was analyzed by SDS PAGE and staining with Gelcode blue (Thermo Scientific) and quantified using a BCA assay (Pierce, Thermo Scientific). For GFP yield determination based on whole cell fluorescence, cell pellets from 3 ml expressions were washed twice with 3 ml 4x PBS (by centrifugation for 10 min at 3320 x g at room temperature and resuspension) and fluorescence was determined using a Tecan M200 plate reader using and excitation wavelength of 475 nm and an emission wavelength of 510 nm. Fluorescence values were corrected for cell densities based on OD600 - measurements. […]

For series [4], the target named is T4, PylRS_AF_D408A (Methanosarcina mazei, UniProt Q8PWY1, D408A/Y306A/Y384F).
T4 construct: expressed in transfected cells
Put plainly: PylRS_AF D408A-mediated amber suppression in GFP-Y39TAG (cellular GFP expression in E. coli). Conditions: pREP_PylRS_AF_D408A, pBAD_GFP-39TAG. The series is classed as cell-based.
Text: as §2

The target of series [5] is T5, PylRS_AF_L407A (Methanosarcina mazei, UniProt Q8PWY1, L407A/Y306A/Y384F).
T5 construct: expressed in transfected cells
The series is described as follows: PylRS_AF L407A-mediated amber suppression in GFP-Y39TAG (cellular GFP expression in E. coli). The format is cell-based. Conditions: pREP_PylRS_AF_L407A, pBAD_GFP-39TAG.
Text: as §2

A short description of series [6]: Solubility of the ncAA. Conditions: limited solubility. The series is classed as physicochemical.
[7] abbreviates: pBAD_GFP-39TAG, 1 mM ncAA, non-optimized conditions.

≈ marks a conversion by molar mass, not a printed value.

T1 sequence (Q8PWY1 whole entry Y306A/Y384F): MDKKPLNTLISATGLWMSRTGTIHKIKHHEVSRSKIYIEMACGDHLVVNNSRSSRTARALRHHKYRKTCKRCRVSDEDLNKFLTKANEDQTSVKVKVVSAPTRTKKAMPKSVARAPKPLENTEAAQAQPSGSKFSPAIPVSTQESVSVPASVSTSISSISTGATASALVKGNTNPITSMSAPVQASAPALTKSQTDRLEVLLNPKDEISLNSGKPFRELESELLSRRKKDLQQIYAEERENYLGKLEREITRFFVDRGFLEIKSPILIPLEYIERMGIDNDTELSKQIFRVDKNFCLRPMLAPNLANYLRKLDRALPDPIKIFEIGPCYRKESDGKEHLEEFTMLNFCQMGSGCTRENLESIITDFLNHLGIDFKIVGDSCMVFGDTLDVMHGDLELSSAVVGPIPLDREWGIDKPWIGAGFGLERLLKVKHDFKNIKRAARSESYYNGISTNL
T2 sequence (Q8PWY1 whole entry): as the sequence (Q8PWY1 whole entry Y306A/Y384F) above, with A306Y, F384Y counted along it
T5 sequence (Q8PWY1 whole entry Y306A/Y384F/L407A): as the sequence (Q8PWY1 whole entry Y306A/Y384F) above, with L407A counted along it
T4 sequence (Q8PWY1 whole entry Y306A/Y384F/D408A): as the sequence (Q8PWY1 whole entry Y306A/Y384F) above, with D408A counted along it
T3 sequence (Q8PWY1 whole entry Y306G/Y384F): as the sequence (Q8PWY1 whole entry Y306A/Y384F) above, with A306G counted along it

For the compound `N[C@@H](CCCCNC(=O)c1nc2ccccc2nc1O)C(=O)O` [Nε-(2-hydroxyquinoxaline-3-carbonyl)-L-lysine], the “expression of full-length GFP by cellular fluorescence” value (from here on “expression of full-length GFP”) in series [1] (pBAD_GFP-39TAG) was “no significant fluorescence increase compared to background”.
For the compound `CC(C)(C)OC(=O)NCCCC[C@H](N)C(=O)O` [ncAA 2, Nε-(tert-butyloxycarbonyl)-L-lysine, reference compound], the “expression of full-length GFP” value in series [2] is “detected”. The “GFP expression, SDS PAGE of Ni-NTA-purified GFP” value (from here on “GFP expression, SDS PAGE”) in series [3] and in series [1] was “significant expression” throughout. For the same compound, the “cellular GFP expression” value in series [4] and in series [5] was “significant levels” each time.
For the compound `N[C@@H](CCCCNC(=O)c1cnc2ccccc2n1)C(=O)O` [ncAA 3, Nε-(quinoxaline-2-carbonyl)-L-lysine], in series [2], the “expression of full-length GFP” value is on record as “failure of amber suppression” and the “GFP expression, SDS PAGE” value is “not recognized”. Moreover, the “yield of purified GFP-Y39→ncAA” value in series [1] (setting [7]) was determined as 1.4 mg/L.
On to `N[C@@H](CCCCNC(=O)c1ccc2ccccc2n1)C(=O)O` [ncAA 5, Nε-(quinoline-2-carbonyl)-L-lysine], for which the “GFP expression, SDS PAGE” value in series [2] was “not recognized”; in series [3], “significant expression”; in series [1], “significant expression”. Also, the “yield of purified GFP-Y39→ncAA” value in series [1] (standard expression conditions) was > 11 mg/L; in series [1] (setting [7]) it was 4.5 mg/L. In addition, the “cellular GFP expression” value in series [4] and in series [5] was “significant levels” throughout.
With `N[C@@H](CCCCNC(=O)c1cc2ccccc2cn1)C(=O)O` [ncAA 6, Nε-(isoquinoline-3-carbonyl)-L-lysine], in series [1] (setting [7]), the “yield of purified GFP-Y39→ncAA” value is on record as 1.4 mg/L. The “efficiency and accuracy of incorporation into peptides” value in series [1] is listed as “best results”.
What is called solubility is the concentration that dissolves in the medium under given conditions. A low value points to a poorly soluble substance. Consider `N[C@@H](CCCCNC(=O)c1ccc2ccccc2c1)C(=O)O` [ncAA 7, Nε-(naphtalene-2-carbonyl)-L-lysine], for which the solubility in series [6] is ~100 µM (≈ 30 µg/mL). Besides, in series [1] (pBAD_GFP-39TAG), the “expression of full-length GFP” value was “no expression”.
As for “(S)-2-amino-6-(((benzo[h]quinolin-2-ylmethoxy)carbonyl)amino) hexanoic acid [ncAA 8]”, in series [1], the “efficiency and accuracy of incorporation into peptides” value was “best results”.

Values taken from EP3024823B1, “INTERCALATING AMINO ACIDS” (priority 2013, dated 2015).
